According to publication PMC8264259, “A Novel Ruthenium(II) Complex With Lapachol Induces G2/M Phase Arrest Through Aurora-B Kinase Down-Regulation and ROS-Mediated Apoptosis in Human Prostate Adenocarcinoma Cells” (Frontiers in Oncology, 2021):
Counter-ions that a name gives are not always drawn.

Columns and labels:
[1] = set-up: method as in PMID 30776556; details: previously tested, not tested in the present work; read-out: IC50 (weak cytotoxicity); cited from earlier work
[2] = tested on: A-375 (human malignant melanoma); assay: Alamar blue cytotoxicity assay, A-375; assay type: cell-based; details: for IC50: A-375, Alamar blue, 24-h incubation, mean ± S.E.M.
Description: (§1) Human lung carcinoma (A549, ATCC® CCL-185™), human hepatocellular carcinoma (HepG2, ATCC® HB-8065™), and human breast adenocarcinoma (MDA-MB-231, ATCC® HTB-26™) were obtained from American Type Cell Collection (ATCC). Human melanoma (A-375, BCRJ-0278), Human colorectal adenocarcinoma (Caco-2, BCRJ 0059), human prostate adenocarcinoma (DU-145, BCRJ-0078, and PC-3, BCRJ-0269), human mouth fibroblast (FGH, BCRJ-0089), and human prostate epithelial cells (PNT-2, BCRJ-0366) were obtained from Rio de Janeiro Cells Bank (BCRJ). The cells A549, A-375, Caco-2, DU-145, HepG2, MDA-MB-231, and FGH were cultured in Dulbecco’s Modified Eagle’s Medium (DMEM, Gibco-Invitrogen®), PC-3 and PNT-2 cells were grown in Roswell Park Memorial Institute Medium (RPMI-1640, Gibco-Invitrogen®). Both mediums were supplemented according to the needs of each lineage, as recommended by its cell banks with 2 mM L-glutamine (Gibco-Invitrogen®), 10% or 20% fetal bovine serum (Gibco-Invitrogen®), 1% antibiotic-antimycotic solution (5 mg/ml penicillin, 5 mg/ml streptomycin, and 10 mg/ml neomycin, Gibco-Invitrogen®), and 3.7 g/L of NaHCO3 (Sigma-Aldrich). All cell lines were cultured in flasks at 37°C in 5% CO2 and 96% of relative humidity according to the procedures proposed by ([31]), and a mycoplasma stain kit (Sigma-Aldrich) was used to confirm the use of cells devoid of contamination. The assays were conducted between the third and the seventh-cell passage with sub-cultures every 3 to 4 days to maintain exponential growth. The cell viability was checked using the trypan blue dye exclusion assay for all experiments where over 95% of the cells were viable at the beginning of the tests.
(§2) The in vitro antiproliferative activity was quantified using the Alamar blue® assay, according to the method reported by ([32]). Cells were seeded in 96-well plates for all experiments (1.5 × 10^4 cells/well). After 24 h, the complexes were dissolved in DMSO and added to each well and incubated for 24 h. Dilutions of the complexes were prepared to obtain concentrations ranging from 0.3 to 100 μM. […] DMSO (0.1% v/v) was used as the vehicle control. Following 24 h of incubation, 50 μl of Alamar blue® (resazurin at 0.01% w/v, Sigma-Aldrich) was added to each well, and the plates were incubated, at 37°C, in the dark. Fluorescence reading was performed in a Synergy H1 Fluorescence Spectrophotometer (BioTek®), using excitation and emission filters at wavelengths of 560 and 590 nm, respectively. The fluorescence intensity was measured in arbitrary fluorescence units (AFU) and the AFU of untreated cells (CTL) was considered 100%. The cytotoxic effects of the compounds were estimated in terms of cell proliferation inhibition (%) and expressed as half-maximal inhibitory concentration (IC50). The cell proliferation inhibition percentage of cells exposed to treatments was calculated following: % Inhibition = 100 − (AFU of treated well/AFU of control well) × 100). The IC50 values were calculated from the cell proliferation inhibition percentage by nonlinear regression method using CompusSyn® Software.

[3] = tested on: A549 (human lung carcinoma); assay: Alamar blue cytotoxicity assay, A549; assay type: cell-based; details: for IC50: A549, Alamar blue, 24-h incubation, mean ± S.E.M.
Description: as §1, §2

[4] = tested on: DU-145 (human prostate adenocarcinoma); assay: Alamar blue cytotoxicity assay, DU-145; assay type: cell-based; details: for IC50: DU-145, Alamar blue, 24-h incubation, mean ± S.E.M.
Description: as §1, §2

[5] = tested on: HepG2 (human hepatocellular carcinoma); assay: Alamar blue cytotoxicity assay, HepG2; assay type: cell-based; details: for IC50: HepG2, Alamar blue, 24-h incubation, mean ± S.E.M.
Description: as §1, §2

[6] = tested on: MDA-MB-231 (human breast adenocarcinoma); assay: Alamar blue cytotoxicity assay, MDA-MB-231; assay type: cell-based; details: for IC50: MDA-MB-231, Alamar blue, 24-h incubation, mean ± S.E.M.
Description: as §1, §2

[7] = tested on: PC-3 (human prostate adenocarcinoma); assay: Alamar blue cytotoxicity assay, PC-3; assay type: cell-based; details: for IC50: PC-3, Alamar blue, 24-h incubation, mean ± S.E.M.
Description: as §1, §2

[8] = tested on: FGH (human mouth fibroblast); assay: Alamar blue cytotoxicity assay, FGH non-cancer cells; assay type: cell-based; details: 24-h incubation, mean ± S.E.M.
Description: as §1, §2

[9] = tested on: PNT-2 (human prostate epithelial cells); assay: Alamar blue cytotoxicity assay, PNT-2 non-cancer cells; assay type: cell-based; details: mean ± S.E.M.
Description: as §1, §2

DU-145 MCTSs = assay: 3D multicellular tumor spheroids (MCTSs) culture; assay type: cell-based, human; details: 3D spheroids, 24 h, Alamar blue; read-out: IC50 against the DU-145 MCTSs
Experimental: Multicellular tumor spheroids (MCTSs) were obtained according to the method reported by ([33]). Briefly, 200 μl of a solution of DU-145 cells (2.0 × 10^3 cells/well) were inserted in agarose-coated 96-well plates (1.5% w/v) and cultured in complete medium plus 3% Matrigel® (Corning). DU-145-MCTSs with stable structures had formed after five days. […] Negative control received the vehicle (DMSO 0.1% v/v) that was used for diluting the compounds tested. Finally, the MCTS proliferation inhibition (%) and IC50 were determined by Alamar blue® assay as described above. To investigate morphological changes other MCTSs were treated with 0.25, 0.5, 1.0, 1.5, and 2.0 μM of complex (2) and examined for 7 days. Spheroid integrity and diameter of MCTSs were analyzed by phase-contrast microscopy (Inverted Trinocular Microscope Opton TNB-O5T-PL) using AxioVision LE software (Carl Zeiss, Germany).

DU-145 cells [10] = assay: Clonogenic assay; assay type: cell-based, human; details: 24 h treatment, colonies after 7 days
Experimental: The clonogenic assay was performed in accordance with the guidelines of ([34]). […] DMSO (0.1% v/v) was used as the vehicle control. After 24 h, the cells were washed with PBS (Gibco-Invitrogen®) and harvested by trypsinization. Cells were counted using a Neubauer chamber and replated then on cell culture dishes of 21.5 cm^2 in a density of 200 cells per culture dish for each treatment in triplicate. After 7 days, cells were fixed in ice-cold methanol: acetic acid: distilled water (1:1:8), air-dried, and stained with crystal violet (0.5% w/v, Sigma-Aldrich) for 20 min. Colonies with at least 50 cells were counted. Plating efficiency (PE) of DU-145 cells was calculated by the ratio of the number of colonies observed after 7 days of incubation to the number of cells seeded (two hundred). The average of colonies in control was considered as 100%, and the number of colonies that arise after treatment of cells is called the surviving fraction (SF), obtained by:
SF = Numberofcoloniescountedineachtreatment/Numberofcoloniescountedincontrol x PE × 100

DU-145 cells [11] = assay: Annexin-V/PI staining assay (flow cytometry); assay type: cell-based, human; details: DU-145, 25 μM (~IC50), 24 h
Experimental: The measurement of cell death was performed by the guidelines of ([35]). Detection of apoptotic/necrotic cells was determined by flow cytometry using the Alexa Fluor® 488 Annexin V/PI (Thermo Fischer Scientific), and the analyses were performed according to the manufacturer’s instructions. […] DMSO (0.1% v/v) was used as the vehicle control. Following 24 h of incubation, the cells were collected with Accutase® (Gibco-Invitrogen®), washed with PBS and resuspended in 200 μl of cold annexin-binding buffer. Next, 10 μl of Alexa Fluor® was added to Annexin V (50 μl/ml) staining buffer, and the mixture was incubated in the dark at 4°C for 15 min. Previously, the analyses, 100 μl of PI (2 μg/ml) was added, and then, the fluorescence was measured by flow cytometry in a FACSCanto flow cytometer (BD Biosciences, USA) using the Diva software. Ten thousand events were evaluated per experiment, and cellular debris was omitted from the analysis.

[12] = tested on: Caco-2 (human colorectal adenocarcinoma); assay: Alamar blue cytotoxicity assay, Caco-2; assay type: cell-based; details: for IC50: Homo sapiens, Caco-2, Alamar blue, 24-h incubation, mean ± S.E.M.
Description: as §1, §2

[13] = Homo sapiens, PNT2, 24-h incubation

**Q.** For `[Cl][Ru][Cl].c1ccc(P(CP(c2ccccc2)c2ccccc2)c2ccccc2)cc1.c1cnc2c(c1)ccc1cccnc12` [cis-[RuCl2(dppm)(phen)]], which IC50 [1] is on record?
**A.** > 100 µM

**Q.** With `N.N.[Cl][Pt][Cl]` [CIS, Cisplatin, reference compound] as the compound, how does the IC50 [2] read?
**A.** 16.5 ± 2.3 µM

**Q.** And the IC50 [3]?
**A.** 11.9 ± 0.6 µM

**Q.** What about the IC50 [4] of the same compound?
**A.** 24.3 ± 1.3 µM

**Q.** And the IC50 [5]?
**A.** 14.1 ± 0.5 µM

**Q.** And the IC50 [6]?
**A.** 22.1 ± 1.7 µM

**Q.** And the IC50 [7]?
**A.** 10.8 ± 1.1 µM

**Q.** What about the IC50 [8] of the same compound?
**A.** 11.4 ± 0.5 µM

**Q.** And the IC50 ([9]; 24-h incubation)?
**A.** 9.5 ± 0.3 µM

**Q.** What about the IC50 (DU-145 MCTSs) of the same compound?
**A.** 62.6 µM

**Q.** What about the “survival fraction (SF)” value (DU-145 cells [10]; DU-145, 25 μM) of the same compound?
**A.** 69.1%

**Q.** What about the “population of apoptotic cells” value (DU-145 cells [11]) of the same compound?
**A.** 19.5%

**Q.** Which IC50 [1] does the source give for `[Cl][Ru][Cl].c1ccc(-c2ccccn2)nc1.c1ccc(P(CP(c2ccccc2)c2ccccc2)c2ccccc2)cc1` [cis-[RuCl2(dppm)(bipy)]] here?
**A.** > 100 µM

**Q.** What does the source list for `COc1cccc2c1C(=O)c1c(O)c3c(c(O)c1C2=O)C[C@@](O)(C(=O)CO)C[C@@H]3O[C@H]1C[C@H](N)[C@H](O)[C@H](C)O1` [DXR, doxorubicin hydrochloride, reference compound]?
**A.** IC50 ([2]; Homo sapiens): 3.7 ± 0.6 µM; Selectivity index (SI) ([2]; SI = IC50[FGH]/IC50[A-375]): 0.7; Selectivity index (SI) ([2]; SI = IC50[PNT-2]/IC50[A-375]): 0.9; IC50 ([3]; Homo sapiens): 1.9 ± 0.4 µM; Selectivity index (SI) ([3]; SI = IC50[FGH]/IC50[A549]): 1.4; Selectivity index (SI) ([3]; SI = IC50[PNT-2]/IC50[A549]): 1.7; IC50 [12]: 2.1 ± 0.8 µM; Selectivity index (SI) ([12]; SI = IC50[FGH]/IC50[Caco-2]): 1.2; Selectivity index (SI) ([12]; SI = IC50[PNT-2]/IC50[Caco-2]): 1.5; IC50 ([4]; Homo sapiens): 2.3 ± 0.5 µM; Selectivity index (SI) ([4]; SI = IC50[FGH]/IC50[DU-145]): 1.1; Selectivity index (SI) ([4]; SI = IC50[PNT-2]/IC50[DU-145]): 1.4; IC50 ([5]; Homo sapiens): 2.4 ± 0.8 µM; Selectivity index (SI) ([5]; SI = IC50[FGH]/IC50[HepG2]): 1.1; Selectivity index (SI) ([5]; SI = IC50[PNT-2]/IC50[HepG2]): 1.3; IC50 ([6]; Homo sapiens): 2.1 ± 0.7 µM; Selectivity index (SI) ([6]; SI = IC50[FGH]/IC50[MDA-MB-231]): 1.2; Selectivity index (SI) ([6]; SI = IC50[PNT-2]/IC50[MDA-MB-231]): 1.5; IC50 ([7]; Homo sapiens): 2.6 ± 0.3 µM; Selectivity index (SI) ([7]; SI = IC50[FGH]/IC50[PC-3]): 1.0; Selectivity index (SI) ([7]; SI = IC50[PNT-2]/IC50[PC-3]): 1.2; IC50 ([8]; Homo sapiens, Fibroblast): 2.6 ± 0.6 µM; IC50 [9, 13]: 3.2 ± 0.5 µM; survival fraction (SF) (DU-145 cells [10]; DU-145, 2.5 μM): 18.7%

**Q.** For `CC(C)=CCC1=C(O)C(=O)c2ccccc2C1=O` [Lp, 2-hydroxy-3-(3-methylbut-2-en-1-yl)naphthalene-1,4-dione, reference compound], which IC50 ([2]; Homo sapiens) is on record?
**A.** > 100 µM

**Q.** And the IC50 ([3]; Homo sapiens)?
**A.** > 100 µM

**Q.** And the IC50 [12]?
**A.** > 100 µM

**Q.** What about the IC50 ([4]; Homo sapiens) of the same compound?
**A.** > 100 µM

**Q.** And the IC50 ([5]; Homo sapiens)?
**A.** > 100 µM

**Q.** And the IC50 ([6]; Homo sapiens)?
**A.** > 100 µM

**Q.** And the IC50 ([7]; Homo sapiens)?
**A.** > 100 µM

**Q.** What about the IC50 ([8]; Homo sapiens, Fibroblast) of the same compound?
**A.** > 100 µM

**Q.** What about the IC50 [9, 13] of the same compound?
**A.** > 100 µM
